Test results as given in patent US20040044008A1, “Use of therapeutic benzamide derivatives” (priority 2000, published 2004).

Row | SMILES | melting point [°C]
1 | O=C(Nc1ccc(N2CCN(Cc3cccc(F)c3)CC2)cc1)c1ccccc1-c1ccc(C(F)(F)F)cc1 (hydrate or solvate) [Example 53, 4′-Trifluoromethyl-biphenyl-2-carboxylic acid [4-[4-(3-fluoro-benzyl)-piperazin-1-yl]-phenyl]-amide] | 189 to 190.5
2 | Cc1ccc(-c2ccccc2C(=O)Nc2ccc(N3CCN(Cc4cccc(C#N)c4)CC3)cc2)cc1C | 140 to 144
3 | COc1cccc(CN2CCN(c3ccc(NC(=O)c4ccccc4-c4ccc(C(F)(F)F)cc4)cc3)CC2)c1 (hydrate or solvate) [Example 51, 4′-Trifluoromethyl-biphenyl-2-carboxylic acid [4-[4-(3-methoxy-benzyl)-piperazin-1-yl]-phenyl]-amide] | 168 to 170
4 | CC(C)c1ccc(-c2ccccc2C(=O)Nc2ccc(N3CCN(Cc4cccc(C#N)c4)CC3)cc2)cc1 [Example 16, 4′-Isopropyl-biphenyl-2-carboxylic acid [4-[4-(3-cyano-benzyl)-piperazin-1-yl]-phenyl]-amide] | 133 to 135
5 | O=C(Nc1ccc(N2CCN(Cc3ccco3)CC2)cc1)c1ccccc1-c1ccc(C(F)(F)F)cc1 [Example 67, 4′-Trifluoromethyl-biphenyl-2-carboxylic acid [4-(4-furan-2-ylmethyl-piperazin-1-yl)-phenyl]-amide] | 173 to 175
6 | Cc1ccc(C(=O)Nc2ccc(N3CCN(Cc4cccc(C#N)c4)CC3)cc2)c(-c2ccc(C(F)(F)F)cc2)c1 [Example 9, 5-Methyl-4′-trifluoromethyl-biphenyl-2-carboxylic acid [4-[4-(3-cyano-benzyl)-piperazin-1-yl]-phenyl]-amide] | 166 to 168
7 | COc1cccc(C(=O)Nc2ccc(N3CCN(Cc4cccc(C#N)c4)CC3)cc2)c1OCCC1CCCCC1 [Example 31, N-[4-[4-(3-Cyano-benzyl)-piperazin-1-yl]-phenyl]-2-(2-cyclohexyl-ethoxy)-3-methoxy-benzamide] | 102 to 104
8 | COc1ccc(-c2ccccc2C(=O)Nc2ccc(N3CCN(Cc4cccc(C#N)c4)CC3)cc2)cc1 | 124 to 128
9 | Cn1ccnc1CN1CCN(c2ccc(NC(=O)c3ccccc3-c3ccc(C(F)(F)F)cc3)cc2)CC1 [Example 60, 4′-Trifluoromethyl-biphenyl-2-carboxylic acid [4-[4-(1-methyl-1H-imidazol-2-ylmethyl)-piperazin-1-yl)-phenyl]-amide] | 118 to 120
10 | O=C(Nc1ccc(N2CCN(Cc3ccsc3)CC2)cc1)c1ccccc1-c1ccc(C(F)(F)F)cc1 [Example 72, 4′-Trifluoromethyl-biphenyl-2-carboxylic acid [4-(4-thiophen-3-ylmethyl-piperazin-1-yl)-phenyl]-amide] | 187 to 189
11 | O=C(Nc1ccc(N2CCN(CCCC(F)(F)F)CC2)cc1)c1ccccc1-c1ccc(C(F)(F)F)cc1 [Example 45, 4′-Trifluoromethyl-biphenyl-2-carboxylic acid [4-(4-(4,4,4-trifluoro-butyl)-piperazin-1-yl]-phenyl]-amide] | 198 to 200
12 | O=C(Nc1ccc(N2CCN(Cc3ccc(F)cc3)CC2)cc1)c1ccccc1-c1ccc(C(F)(F)F)cc1 [Example 52, 4′-Trifluoromethyl-biphenyl-2-carboxylic acid [4-[4-(4-fluoro-benzyl)-piperazin-1-yl]-phenyl]-amide] | 198 to 200
13 | O=C(Nc1ccc(N2CCN(Cc3cccc([N+](=O)[O-])c3)CC2)cc1)c1ccccc1-c1ccc(C(F)(F)F)cc1 [Example 49, 4′-Trifluoromethyl-biphenyl-2-carboxylic acid [4-(4-(3-nitro-benzyl)-piperazin-1-yl)-phenyl]-amide] | 152 to 154
14 | COc1ccc(-c2ccc(C(F)(F)F)cc2)c(C(=O)Nc2ccc(N3CCN(Cc4cccc(C#N)c4)CC3)cc2)c1 [Example 19, 4-Methoxy-4′-trifluoromethyl-biphenyl-2-carboxylic acid [4-[4-(3-cyano-benzyl)-piperazin-1-yl]-phenyl]-amide] | 151 to 155
15 | N#Cc1cccc(CN2CCN(c3ccc(NC(=O)c4ccccc4-c4ccccc4)cc3)CC2)c1 (hydrate or solvate) [Example 11, Biphenyl-2-carboxylic acid [4-[4-(3-cyano-benzyl)-piperazin-1-yl]-phenyl]-amide] | 169 to 171
16 | NC(=O)c1cccc(CN2CCN(c3ccc(NC(=O)c4ccccc4-c4ccc(C(F)(F)F)cc4)cc3)CC2)c1 [Example 50, 4′-Trifluoromethyl-biphenyl-2-carboxylic acid {4-[4-(3-carbamoyl-benzyl)-piperazin-1-yl]-phenyl}-amide] | 199 to 201
17 | O=C(Nc1ccc(N2CCN(Cc3cccs3)CC2)cc1)c1ccccc1-c1ccc(C(F)(F)F)cc1 [Example 70, 4′-Trifluoromethyl-biphenyl-2-carboxylic acid [4-(4-thiophen-2-ylmethyl-piperazin-1-yl)-phenyl]-amide] | 181 to 183
18 | COc1cccc(C(=O)Nc2ccc(N3CCN(Cc4cccc(C#N)c4)CC3)cc2)c1OCc1ccc(F)cc1 [Example 29, N-[4-[4-(3-Cyano-benzyl)-piperazin-1-yl]-phenyl]-2-(4-fluoro-benzyloxy)-3-methoxy-benzamide] | 118 to 120
19 | Cc1cccc(C(=O)Nc2ccc(N3CCN(CC(N)=O)CC3)cc2)c1-c1ccc(C(F)(F)F)cc1 [Example 40, 6-Methyl4′-trifluoromethyl-biphenyl-2-carboxylic acid [4-(4-carbamoylmethyl-piperazin-1-yl)-phenyl]-amide] | 196 to 198
20 | O=C(Nc1ccc(N2CCN(Cc3c[nH]c4ccc(F)cc34)CC2)cc1)c1ccccc1-c1ccc(C(F)(F)F)cc1 [Example 73, 4′-Trifluoromethyl-biphenyl-2-carboxylic acid {4-[4-(5-fluoro-1H-indol-3-ylmethyl)-piperazin-1-yl]-phenyl}-amide] | 168 to 170
21 | CC(C)c1ccc(-c2cc(Cl)ccc2C(=O)Nc2ccc(N3CCN(Cc4cccc(C#N)c4)CC3)cc2)cc1 [Example 7, 5-Chloro-4′-isopropyl-biphenyl-2-carboxylic acid [4-[4-(3-cyano-benzyl)-piperazin-1-yl]-phenyl]-amide] | 188 to 190
22 | CCc1ccc(-c2ccccc2C(=O)Nc2ccc(N3CCN(Cc4cccc(C#N)c4)CC3)cc2)cc1 [Example 20, 4′-Ethyl-biphenyl-2-carboxylic acid [4-[4-(3-cyano-benzyl)-piperazin-1-yl]-phenyl]-amide] | 118 to 122
23 | N#Cc1cccc(CN2CCN(c3ccc(NC(=O)c4ccccc4-c4ccccn4)cc3)CC2)c1 [Example 86, N-{4-[4-(3-Cyano-benzyl)-piperazin-1-yl]-phenyl}-2-pyridin-2-yl-benzamide] | 169 to 171
24 | COc1cccc(C(=O)Nc2ccc(N3CCN(Cc4cccc(-c5nc(C)no5)c4)CC3)cc2)c1-c1ccc(C(C)C)cc1 [Example 74, 4′-Isopropyl-6-methoxy-biphenyl-2-carboxylic acid (4-(4-(3-(3-methyl-[1,2,4]oxadiazol-5-yl)-benzyl)-piperazine-1-yl)-phenyl)-amide] | 180 to 182
